We go through five compounds from patent US10760110B2, “Antibiotic testing and screening system” (priority 2017, dated 2020).

Experiment [1] relates to K. pneumoniae NVT1001 ΔramRΔompK35/36 mutant and its revertants. In words: Etest MIC, ΔramRΔompK35/36 mutant and its revertants (Table 7). It is filed as cell-based. Particulars: Klebsiella pneumoniae.
The subject of experiment [2] is K. pneumoniae NVT1001 and its ΔompK35/36 and/or ΔramR mutants. Description: Etest MIC, OmpK35/36 loss and AcrAB-TolC overexpression (ΔramR) strains (Table 6). The class given is cell-based, Klebsiella pneumoniae. Particulars: Klebsiella pneumoniae. An outline of the steps:
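First, Etest determined each antibiotic's MIC, and intermediate results were adjusted upward to the next doubling dilution. Next, ceftazidime and cefotaxime were titrated in broth according to CLSI recommendations. Finally, results were interpreted with CLSI 2017 breakpoints, substituting CLSI 2015 for cephalothin and EUCAST 2017 for moxifloxacin.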

Where [3] appears, read: ΔramRΔompK35/36::ompK35/36 revertant.
Where [4] appears, read: ΔramRΔompK35/36::ompK35 revertant.
The mark [5] stands for this setting: ΔramRΔompK35/36::ompK36 revertant.
Where [6] appears, read: ΔramRΔompK35/36::ramR revertant.
[7] abbreviates: ΔramRΔompK35/36::ramR::ompK35/36 revertant.
The mark [8] stands for this setting: ΔramRΔompK35/36::ramR::ompK35 revertant.
[9] abbreviates: ΔramRΔompK35/36::ramR::ompK36 revertant.
Where [10] appears, read: ΔramRΔ35/36, ΔramRΔompK35/36 mutant.

Converted amounts (≈) assume the structure as drawn. Read-outs that look alike come from different tables or passages of the source.

Broadly, the MIC is the least concentration at which growth counts as inhibited. On to `COc1c(N2C[C@@H]3CCCN[C@@H]3C2)c(F)cc2c(=O)c(C(=O)O)cn(C3CC3)c12` [Moxifloxacin, moxifloxacin], for which the MIC turned out to be 0.5 µg/mL in experiment [1] (setting [3]); 1 µg/mL in experiment [1] (setting [4]); 0.5 µg/mL in experiment [1] (setting [5]); 0.06 µg/mL in experiment [1] (setting [6]); 0.125 µg/mL in experiment [1] (setting [7]); 0.06 µg/mL in experiment [1] (setting [8]). Moreover, the MIC in experiment [1] (setting [9]) amounted to 0.125 µg/mL; in experiment [1] (ΔramRΔompK35/36 mutant), 1 µg/mL; in experiment [2] (WT, NVT1001, read-out: MIC) it was 0.125 µg/mL (≈ 0.311 µM); in experiment [2] (Δ35, ΔompK35 mutant), 0.125 µg/mL (≈ 0.311 µM); in experiment [2] (Δ35/36, ΔompK35/36 mutant) it was 0.125 µg/mL (≈ 0.311 µM); in experiment [2] (Δ36, ΔompK36 mutant), 0.06 µg/mL (≈ 0.149 µM). Further, the minimum inhibitory concentration (MIC) in experiment [2] (ΔramR mutant) stood at 1 µg/mL (≈ 2.49 µM); in experiment [2] (ΔramRΔ35, ΔramRΔompK35 mutant), 1 µg/mL (≈ 2.49 µM); in experiment [2] (setting [10]), 1 µg/mL (≈ 2.49 µM); in experiment [2] (ΔramRΔ36, ΔramRΔompK36 mutant), 1 µg/mL (≈ 2.49 µM).

Take `CC1COc2c(N3CCN(C)CC3)c(F)cc3c(=O)c(C(=O)O)cn1c23` (centres unmarked) [Ofloxacin, ofloxacin]: the MIC turned out to be 2 µg/mL in experiment [1] (setting [3]); 2 µg/mL in experiment [1] (setting [4]); 2 µg/mL in experiment [1] (setting [5]); 0.25 µg/mL in experiment [1] (setting [6]); 0.25 µg/mL in experiment [1] (setting [7]); 0.25 µg/mL in experiment [1] (setting [8]). The MIC in experiment [1] (setting [9]) came out at 0.25 µg/mL; in experiment [1] (ΔramRΔompK35/36 mutant), 2 µg/mL; in experiment [2] (WT, NVT1001, read-out: MIC) it was 0.25 µg/mL (≈ 0.692 µM); in experiment [2] (Δ35, ΔompK35 mutant), 0.25 µg/mL (≈ 0.692 µM); in experiment [2] (Δ35/36, ΔompK35/36 mutant), 0.25 µg/mL (≈ 0.692 µM); in experiment [2] (Δ36, ΔompK36 mutant), 0.25 µg/mL (≈ 0.692 µM). Moreover, the MIC in experiment [2] (ΔramR mutant) amounted to 2 µg/mL (≈ 5.53 µM); in experiment [2] (ΔramRΔ35, ΔramRΔompK35 mutant) it was 2 µg/mL (≈ 5.53 µM); in experiment [2] (setting [10]) it was 2 µg/mL (≈ 5.53 µM); in experiment [2] (ΔramRΔ36, ΔramRΔompK36 mutant), 2 µg/mL (≈ 5.53 µM).

For `CCn1cc(C(=O)O)c(=O)c2ccc(C)nc21` [Nalidixic acid, nalidixic acid], the minimal inhibitory concentration (MIC) is 64 µg/mL in experiment [1] (setting [3]); 32 µg/mL in experiment [1] (setting [4]); 64 µg/mL in experiment [1] (setting [5]); 8 µg/mL in experiment [1] (setting [6]); 8 µg/mL in experiment [1] (setting [7]); 8 µg/mL in experiment [1] (setting [8]). Besides, the MIC in experiment [1] (setting [9]) is 8 µg/mL; in experiment [1] (ΔramRΔompK35/36 mutant) it was 32 µg/mL; in experiment [2] (WT, NVT1001, read-out: MIC), 4 µg/mL (≈ 17.2 µM); in experiment [2] (Δ35, ΔompK35 mutant), 8 µg/mL (≈ 34.4 µM); in experiment [2] (Δ35/36, ΔompK35/36 mutant) it was 8 µg/mL (≈ 34.4 µM); in experiment [2] (Δ36, ΔompK36 mutant) it was 4 µg/mL (≈ 17.2 µM). In addition, the MIC stood at 32 µg/mL (≈ 138 µM) in experiment [2] (ΔramR mutant); 64 µg/mL (≈ 276 µM) in experiment [2] (ΔramRΔ35, ΔramRΔompK35 mutant); 32 µg/mL (≈ 138 µM) in experiment [2] (setting [10]); 32 µg/mL (≈ 138 µM) in experiment [2] (ΔramRΔ36, ΔramRΔompK36 mutant).

`C[C@H]1COc2c(N3CCN(C)CC3)c(F)cc3c(=O)c(C(=O)O)cn1c23` [Levofloxacin, levofloxacin]: the minimal inhibitory concentration (MIC) in experiment [1] (setting [3]) came out at 0.5 µg/mL; in experiment [1] (setting [4]), 1 µg/mL; in experiment [1] (setting [5]) it was 0.5 µg/mL; in experiment [1] (setting [6]) it was 0.125 µg/mL; in experiment [1] (setting [7]), 0.06 µg/mL; in experiment [1] (setting [8]), 0.06 µg/mL. Moreover, the MIC was 0.125 µg/mL in experiment [1] (setting [9]); 1 µg/mL in experiment [1] (ΔramRΔompK35/36 mutant); 0.06 µg/mL (≈ 0.166 µM) in experiment [2] (WT, NVT1001, read-out: MIC); 0.125 µg/mL (≈ 0.346 µM) in experiment [2] (Δ35, ΔompK35 mutant); 0.125 µg/mL (≈ 0.346 µM) in experiment [2] (Δ35/36, ΔompK35/36 mutant); 0.125 µg/mL (≈ 0.346 µM) in experiment [2] (Δ36, ΔompK36 mutant). For the same compound, the MIC amounted to 1 µg/mL (≈ 2.77 µM) in experiment [2] (ΔramR mutant); 1 µg/mL (≈ 2.77 µM) in experiment [2] (ΔramRΔ35, ΔramRΔompK35 mutant); 1 µg/mL (≈ 2.77 µM) in experiment [2] (setting [10]); 1 µg/mL (≈ 2.77 µM) in experiment [2] (ΔramRΔ36, ΔramRΔompK36 mutant).

For `CCn1cc(C(=O)O)c(=O)c2cc(F)c(N3CCNCC3)cc21` [Norfloxacin, norfloxacin], the minimum inhibitory concentration (MIC) worked out at 2 µg/mL in experiment [1] (setting [3]); 2 µg/mL in experiment [1] (setting [4]); 2 µg/mL in experiment [1] (setting [5]); 0.5 µg/mL in experiment [1] (setting [6]); 0.25 µg/mL in experiment [1] (setting [7]); 0.25 µg/mL in experiment [1] (setting [8]). Also, the minimum inhibitory concentration (MIC) in experiment [1] (setting [9]) was found to be 0.25 µg/mL; in experiment [1] (ΔramRΔompK35/36 mutant), 2 µg/mL; in experiment [2] (WT, NVT1001, read-out: MIC), 0.25 µg/mL (≈ 0.783 µM); in experiment [2] (Δ35, ΔompK35 mutant), 0.25 µg/mL (≈ 0.783 µM); in experiment [2] (Δ35/36, ΔompK35/36 mutant), 0.5 µg/mL (≈ 1.57 µM); in experiment [2] (Δ36, ΔompK36 mutant) it was 0.25 µg/mL (≈ 0.783 µM). In addition, the MIC in experiment [2] (ΔramR mutant) stood at 2 µg/mL (≈ 6.26 µM); in experiment [2] (ΔramRΔ35, ΔramRΔompK35 mutant), 2 µg/mL (≈ 6.26 µM); in experiment [2] (setting [10]), 2 µg/mL (≈ 6.26 µM); in experiment [2] (ΔramRΔ36, ΔramRΔompK36 mutant) it was 2 µg/mL (≈ 6.26 µM).
